# From US20260070945A1, “MACROCYCLIC IMMUNOMODULATORS” (Bristol-Myers Squibb Company, priority 2022, published 2026)
# pIC50: −log10 of the molar value. *1 amine or outer side, *2 acyl side, *3 side chain or, on linkers, in order; H or OH if unused. Where a SMILES comes first, the peptide text is derived from it. Bridges are numbered along the chain shown (N, C = ends). [ ]: non-standard residue; d: D form. The star is where a group is joined. Phe(3-CF3) = N[C@@H](Cc1cccc(C(F)(F)F)c1)C(=O)O; Ala(morpholin-4-yl) = N[C@@H](CN1CCOCC1)C(=O)O; Phe(4-COOH) = N[C@@H](Cc1ccc(C(=O)O)cc1)C(=O)O; Bip = N[C@@H](Cc1ccc(-c2ccccc2)cc1)C(=O)O; γGlu = O=C(O)[C@H](CCC(=O)[*:2])N[*:1]; NH(CH2)12COOH = O=C(O)CCCCCCCCCCCCN*; Val(3-OH) = CC(C)(O)[C@H](N)C(=O)O; Cha = N[C@@H](CC1CCCCC1)C(=O)O; Carboxymethyl = O=C(O)C*; NMeA = CN[C@@H](C)C(=O)O; Dab = NCC[C@H](N)C(=O)O; AEEA = NCCOCCOCC(=O)O
# Biological target: T1, PD-1/PD-L1 interaction (PE-labeled human PD-L1-Ig binding to Jurkat cell line over-expressing human PD-1) (Homo sapiens, UniProt Q15116)
# T1 construct: expressed in transfected cells; host or cells: Jurkat
# Assay: Jurkat-PD-1 Cell Binding High-Content Screening Assay (CBA)
# Conditions: Jurkat-hPD-1 cells, PE-labeled PD-L1-Ig 20 nM final; read-out: Jurkat HPD1 PDL1 IC50
# In short: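 In this imaging assay, cells in 10% FCS medium see compound for 2 h at 37 °C and then labeled ligand at 20 nM final for 1 h. Paraformaldehyde fixation, Hoechst 33342 staining and dPBS washes precede image capture.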
# T1 sequence (Q15116 25-288): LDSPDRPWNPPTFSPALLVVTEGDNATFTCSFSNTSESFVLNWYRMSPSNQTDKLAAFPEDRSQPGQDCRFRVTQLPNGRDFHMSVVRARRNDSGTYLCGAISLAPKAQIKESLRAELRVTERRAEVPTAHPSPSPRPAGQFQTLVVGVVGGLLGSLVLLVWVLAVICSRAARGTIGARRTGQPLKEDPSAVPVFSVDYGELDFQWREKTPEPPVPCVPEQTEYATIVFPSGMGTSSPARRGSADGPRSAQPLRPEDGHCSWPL
row,pIC50,Structure (SMILES)
1,7.22,COC[C@@H]1NC(=O)CSC[C@@H](C(=O)N[C@@H](CCN)C(=O)NCCOCCOCC(=O)N[C@@H](CCC(=O)NCCOCCOCC(=O)NCCCCCCCCCCCCC(=O)O)C(=O)O)NC(=O)[C@H](CCC(=O)O)NC(=O)[C@H](C(C)C)NC(=O)[C@H](CC2CCCCC2)NC(=O)[C@H](CCN)NC(=O)[C@@H](CC(C)C)NC(=O)[C@H](C)N(C)C(=O)[C@H](Cc2ccc(C(=O)O)cc2)NC(=O)[C@H](Cc2ccc(-c3ccccc3)cc2)NC(=O)[C@H](Cc2ccc(C(=O)O)cc2)NC(=O)[C@H](Cc2cccc(C(F)(F)F)c2)NC(=O)[C@H](CC(=O)O)NC(=O)[C@H](Cc2ccc(OCC(=O)O)cc2)NC1=O [Example 1169] ({CH2CO}-S(Me)Y(Carboxymethyl)D[Phe(3-CF3)][Phe(4-COOH)][Bip][Phe(4-COOH)][NMeA][dL][Dab][Cha]VEC[Dab][AEEA][γGlu][AEEA]-{NH(CH2)12COOH}; thioether N-14)
2,7.27,COC[C@@H]1NC(=O)CSC[C@@H](C(=O)N[C@@H](CCN)C(=O)NCCOCCOCC(=O)N[C@@H](CCC(=O)NCCOCCOCC(=O)NCCCCCCCCCCCCC(=O)O)C(=O)O)NC(=O)[C@H](CO)NC(=O)[C@H](C(C)(C)O)NC(=O)[C@H](CC2CCCCC2)NC(=O)[C@H](CCN)NC(=O)[C@@H](CC(C)C)NC(=O)[C@H](C)N(C)C(=O)[C@H](Cc2ccc(C(=O)O)cc2)NC(=O)[C@H](Cc2ccc(-c3ccccc3)cc2)NC(=O)[C@H](Cc2ccc(C(=O)O)cc2)NC(=O)[C@H](Cc2cccc(C(F)(F)F)c2)NC(=O)[C@H](CC(=O)O)NC(=O)[C@H](Cc2ccc(OCC(=O)O)cc2)NC1=O [Example 1170] ({CH2CO}-S(Me)Y(Carboxymethyl)D[Phe(3-CF3)][Phe(4-COOH)][Bip][Phe(4-COOH)][NMeA][dL][Dab][Cha][Val(3-OH)]SC[Dab][AEEA][γGlu][AEEA]-{NH(CH2)12COOH}; thioether N-14)
3,7.39,CC(C)C[C@H]1NC(=O)[C@H](C)N(C)C(=O)[C@H](CCC(N)=O)NC(=O)[C@H](Cc2ccc(-c3ccccc3)cc2)NC(=O)[C@H](Cc2ccc(C(=O)O)cc2)NC(=O)[C@H](Cc2cccc(C(F)(F)F)c2)NC(=O)[C@H](CC(=O)O)NC(=O)[C@H](Cc2ccc(OCC(=O)O)cc2)NC(=O)[C@H](CN2CCOCC2)NC(=O)CSC[C@@H](C(=O)N[C@@H](CCN)C(=O)NCCOCCOCC(=O)N[C@@H](CCC(=O)NCCOCCOCC(=O)NCCCCCCCCCCCCC(=O)O)C(=O)O)NC(=O)[C@H](CC(=O)O)NC(=O)[C@H](C(C)(C)O)NC(=O)[C@H](CC2CCCCC2)NC(=O)[C@H](CCN)NC1=O [Example 1171] ({CH2CO}-[Ala(morpholin-4-yl)]Y(Carboxymethyl)D[Phe(3-CF3)][Phe(4-COOH)][Bip]Q[NMeA][dL][Dab][Cha][Val(3-OH)]DC[Dab][AEEA][γGlu][AEEA]-{NH(CH2)12COOH}; thioether N-14)
4,7.67,CC(C)C[C@H]1NC(=O)[C@H](C)N(C)C(=O)[C@H](CCC(N)=O)NC(=O)[C@H](Cc2ccc(-c3ccccc3)cc2)NC(=O)[C@H](Cc2ccc(C(=O)O)cc2)NC(=O)[C@H](Cc2cccc(C(F)(F)F)c2)NC(=O)[C@H](CC(=O)O)NC(=O)[C@H](Cc2ccc(OCC(=O)O)cc2)NC(=O)[C@H](CN2CCOCC2)NC(=O)CSC[C@@H](C(=O)N[C@@H](CCN)C(=O)NCCOCCOCC(=O)N[C@@H](CCC(=O)NCCOCCOCC(=O)NCCCCCCCCCCCCC(=O)O)C(=O)O)NC(=O)[C@H](CO)NC(=O)[C@H](C(C)(C)O)NC(=O)[C@H](CC2CCCCC2)NC(=O)[C@H](CCN)NC1=O [Example 1173] ({CH2CO}-[Ala(morpholin-4-yl)]Y(Carboxymethyl)D[Phe(3-CF3)][Phe(4-COOH)][Bip]Q[NMeA][dL][Dab][Cha][Val(3-OH)]SC[Dab][AEEA][γGlu][AEEA]-{NH(CH2)12COOH}; thioether N-14)
